# Measurements reported in article PMC5048659 (Arthritis Research & Therapy, 2016).
# How the values were obtained:
# ABCG2 = biological target: T1, ABCG2 (Homo sapiens, UniProt Q9UNQ0); experiment: ABCG2 genistein net B→A flux in Caco-2 monolayers; assay type: cell-based
# T1 construct: monolayers of Caco-2 cells expressing ABCG2 were grown on a permeable support; endogenous in cells; host or cells: Caco-2
# T1 sequence (Q9UNQ0 1-655): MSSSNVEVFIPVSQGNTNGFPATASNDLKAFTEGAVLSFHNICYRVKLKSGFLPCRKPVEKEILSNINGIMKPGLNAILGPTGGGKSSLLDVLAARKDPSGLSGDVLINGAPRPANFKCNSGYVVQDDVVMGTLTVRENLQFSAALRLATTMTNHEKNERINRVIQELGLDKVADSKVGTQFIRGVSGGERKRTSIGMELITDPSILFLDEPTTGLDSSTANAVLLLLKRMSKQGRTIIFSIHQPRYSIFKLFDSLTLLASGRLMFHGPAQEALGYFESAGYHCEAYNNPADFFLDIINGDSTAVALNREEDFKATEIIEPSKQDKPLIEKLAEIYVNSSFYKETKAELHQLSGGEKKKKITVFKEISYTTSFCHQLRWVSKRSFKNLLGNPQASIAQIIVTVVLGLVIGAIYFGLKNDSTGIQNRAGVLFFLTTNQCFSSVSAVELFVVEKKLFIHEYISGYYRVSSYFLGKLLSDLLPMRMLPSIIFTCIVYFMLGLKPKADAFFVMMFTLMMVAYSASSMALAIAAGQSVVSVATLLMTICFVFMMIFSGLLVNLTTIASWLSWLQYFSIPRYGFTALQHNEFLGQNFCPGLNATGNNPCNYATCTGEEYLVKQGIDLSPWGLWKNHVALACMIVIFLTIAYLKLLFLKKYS
# Procedure: For ABCG2, monolayers of Caco-2 cells expressing ABCG2 were grown on a permeable support ([…] membranes) in 24-transwell plates. […] Each treatment was assayed in triplicate: [^3H]-genistein substrate at 2 nM was then added for an additional 120 minutes at 37 °C. For basolateral-to-apical (B → A) flux measurements, genistein was placed in the basolateral compartment only (donor well) and a sample was taken after the 120-minute incubation period from the apical compartment (receiver well). For apical-to-basolateral (A → B) flux measurements, genistein was placed in the apical compartment only (donor well) and a sample was taken after the 120-minute incubation period from the basolateral compartment (receiver well). Samples were then subjected to scintillation counting. The inhibition of BCRP/ABCG2 was then calculated by the net B → A flux method. […]
# The net transport in the B → A direction was determined by subtracting the substrate flux in the A → B direction from that in the B → A direction: NetB→Aflux=PappB→A‐PappA→B.
# Percent inhibition is calculated by dividing the Net (B → A) flux in the presence of the inhibitor by the Net (B → A) flux in the absence of the inhibitor (inh): PercentInhibition=100‐100*NetB→Ainh/meanNetB→A.
# [1] = Lesinurad plasma pharmacokinetics and urinary excretion in the clinic; assay type: in vivo, human; settings: single 200-mg dose
# Procedure: (§1) In each treatment period, plasma samples were collected within 30 minutes before dosing (pre-dose) and at 0.5, 1, 1.5, 2, 3, 4, 5, 6, 8, 10, 12, 16, 24, 30, 36, and 48 hours post-dose. Urine (total catch) was collected pretreatment at hours –24 to –18, –18 to –12, and –12 to 0, and post-dose at hours 0 to 6, 6 to 12, 12 to 24, 24 to 30, 30 to 36, and 36 to 48.
# (§2) After protein precipitation of the samples, lesinurad levels in plasma and urine were measured at Ardea Biosciences by quantitative high performance liquid chromatography with tandem mass spectrometry. […] The parameters from individual profiles of lesinurad were determined using noncompartmental methods. Urine samples were analyzed for uric acid and creatinine using enzymatic methods by Covance Clinical Research Unit (Dallas, TX, USA), and pharmacodynamic (PD) parameters were determined by Covance Clinical Research Unit using SAS, Version 8.2 (SAS Institute Inc). Calculated PD parameters for uric acid included urinary excretion, renal clearance, and FEUA. FEUA was calculated by dividing the uric acid clearance by the creatinine clearance.
# healthy volunteers [2] = experiment: Clinical effect on serum uric acid (phase 1 RDEA594-109); assay type: in vivo, human
# Procedure: as §1
# Serum was collected within 30 minutes prior to drug administration, and at 6, 12, 16, 24, 30, 36, and 48 hours after dosing. Serum urate levels and PD parameters were assayed and calculated by Covance Clinical Research Unit as described above.
# [3] = cited from earlier work
# OAT1 and OAT3 = settings: in vivo; cited from earlier work
# healthy volunteers [4] = experiment: Clinical effect on fractional excretion of uric acid (phase 1 RDEA594-109); assay type: in vivo, human; settings: for Peak FEUA: within 6 hours, baseline 5.8 %
# Procedure: as §1, §2
# [5] = single 200-mg dose, after 6 hours, p < 0.001
compound,measurement,setting,value
"O=C(O)CSc1nnc(Br)n1-c1ccc(C2CC2)c2ccccc12 [Lesinurad, 2-((5-bromo-4-(4-cyclopropylnaphthalen-1-yl)-4H-1,2,4-triazol-3-yl)thio) acetic acid]",IC50,"ABCG2; Caco-2, 2 nM [3H]-genistein, 120 min, read-out: Potency against ABCG2",> 100 µM
same,Effect on ABCG2 activity,"ABCG2; Caco-2, at up to 100 μM",no effect
same,Maximal plasma concentration,[1],29 µM
same,Predicted maximal plasma-free concentration,[1]; from Cmax and 98.4 % protein binding,0.46 µM
same,Reduction of sUA,healthy volunteers [2]; [5],33%
same,Maximum reduction of sUA,"healthy volunteers [2]; single 600-mg dose, after 6 hours",42%
same,Reduction of sUA,"healthy volunteers [2]; single 600-mg dose, after 24 hours",31%
same,Plasma protein binding,[3],98.4%
same,Effect on renal clearance and PD of the OAT substrate furosemide,OAT1 and OAT3,no effect
same,EC50,"healthy volunteers [4]; Homo sapiens, single 200-, 400- or 600-mg doses, healthy volunteers, read-out: Half-maximal effective plasma concentration for elevating FEUA",13 µM
same,FEUA in some individuals with high plasma lesinurad,"healthy volunteers [4]; healthy volunteers, single doses",up to 35%
same,Elevation of FEUA,healthy volunteers [4]; [5],3.6 fold
same,Peak FEUA,healthy volunteers [4]; single 200-mg oral dose,21.8%
same,Peak FEUA,healthy volunteers [4]; single 400-mg oral dose,26.7%
same,Peak FEUA,healthy volunteers [4]; single 600-mg oral dose,32.3%
